How the values were obtained:
Assay type in all cases: cell-based
HL60 cells = assay: HL60 cell killing experiment (CellTiter-Glo cell viability); details: Homo sapiens, HL-60, 48 h incubation, CTG luminescence
How it was run: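 Cells seeded at 5×10^4 cells/mL, dosed after 4 h at 37 °C, then grown for 48 h. CellTiter-Glo luminescence read at the time of dosing (G0) and after 48 h (G3). GI50 fitted from proliferation rate versus concentration.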

Jurkat cells = assay: Jurkat cell killing experiment (CellTiter-Glo cell viability); details: Homo sapiens, 48 h incubation, CTG luminescence
Method: (§1) Jurkat cell lines were purchased from ATCC (Cat #ATCC® TIB-152™), RPMI1640 media were purchased from ATCC (Cat #ATCC® 30-2001™), FBS was purchased from Gibco (Cat #10091148), celltiter-glo luminescent cell viability assay was purchased from promega (Cat #G7572), and 96-well plates were purchased from coming (Cat #3610).
(§2) The effect of compounds on the growth of Jurkat cells was determined by measuring cell viability and growth rate. Firstly, cells in the logarithmic growth phase were collected and centrifuged, and the culture supernatant was discarded. The centrifuged cells were resuspended in a fresh complete medium, and the cell density was adjusted to 5×10^4 cells/mL. The resuspended cells were inoculated into two identical opaque 96-well cell culture plates at 100 μL of cell suspension per well, and the cell culture plates were incubated in a cell incubator at 37° C. for 4 h. After 4 h, dilutions (20 μL) of compounds with different concentrations were added. After one of the cell plates was cooled to room temperature, 60 μL of CTG reagent was added, and the luminescence values were read on the instrument as G0. The other one was incubated in a cell incubator for 48 h. After 48 h, 60 μL of CTG reagent was added, and the luminescence values were read on the instrument as G3.
(§3) According to the corresponding proliferation rate and concentration of each gradient concentration well, a gradient curve of cell proliferation was fitted using XLFit software, and the GI50 values of compounds were calculated.

Hep3B cells = assay: Hep3B cell killing experiment (CellTiter-Glo cell viability); details: Homo sapiens, 48 h incubation, CTG luminescence
Method: as §1, with “Hep3B” for “Jurkat”, “HB-8064™), EMEM” for “TIB-152™), RPMI1640”, “30-2003™),” for “30-2001™),”
The effect of compounds on the growth of Hep3B cells was determined by measuring cell viability and growth rate. Firstly, the cells were digested with pancreatin, and the digestion was then terminated with medium. The cells were centrifuged, and the supernatant was discarded. The centrifuged cells were resuspended in a fresh complete medium, and the cell density was adjusted to 5×10^4 cells/mL. The resuspended cells were inoculated into two identical opaque 96-well cell culture plates at 100 μL of cell suspension per well, and the cell culture plates were incubated in a cell incubator at 37° C. overnight. The next day, dilutions (20 μL) of compounds with different concentrations were added. After one of the cell plates was cooled to room temperature, 60 μL of CTG reagent was added. The luminescence values were read on the instrument as G0. The other one was incubated in a cell incubator for 48 h. After 48 h, 60 μL of CTG reagent was added, and the luminescence values were read on the instrument as G3.
as §3

NCI-H929 cells = assay: NCI-H929 cell killing experiment (CellTiter-Glo cell viability); details: Homo sapiens, 48 h incubation, CTG luminescence
Method: as §1, with “NCI-H929” for “Jurkat”, “CRL-9068™),” for “TIB-152™),”
as §2, with “2. Method The effect” for “The effect”, “growth of NCI-H929 cells was” for “growth of Jurkat cells was”
as §3

Raji cells = assay: Raji cell killing experiment (CellTiter-Glo cell viability); details: Homo sapiens, 48 h incubation, CTG luminescence
Method: as §1, with “Raji” for “Jurkat”, “CCL-86™),” for “TIB-152™),”
as §2, with “Raji” for “Jurkat”
as §3

GSPT1 = target: T1, GSPT1 (Homo sapiens, UniProt P15170+Q96SW2); assay: Degradation of GSPT1 by the compounds (HiBiT signal in GSPT1/HEK293 hibit cells); details: 6 h incubation, Nano Glo HiBiT Lytic Detection
T1 construct: host or cells: HEK293
T1 sequence (P15170 whole entry): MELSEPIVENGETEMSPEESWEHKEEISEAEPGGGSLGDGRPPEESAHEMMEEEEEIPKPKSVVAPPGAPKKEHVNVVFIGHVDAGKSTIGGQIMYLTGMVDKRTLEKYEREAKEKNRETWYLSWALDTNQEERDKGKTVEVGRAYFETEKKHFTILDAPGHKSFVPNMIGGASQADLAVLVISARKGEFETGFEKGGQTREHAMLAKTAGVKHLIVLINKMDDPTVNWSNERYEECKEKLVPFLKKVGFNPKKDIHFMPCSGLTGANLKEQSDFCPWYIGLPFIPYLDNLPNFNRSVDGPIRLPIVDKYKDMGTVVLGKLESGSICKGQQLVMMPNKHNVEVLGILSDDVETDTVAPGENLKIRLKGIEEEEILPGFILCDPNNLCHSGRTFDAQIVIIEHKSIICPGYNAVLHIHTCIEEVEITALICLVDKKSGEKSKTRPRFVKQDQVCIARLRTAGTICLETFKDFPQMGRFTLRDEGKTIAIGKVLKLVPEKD
T1 sequence (Q96SW2 whole entry): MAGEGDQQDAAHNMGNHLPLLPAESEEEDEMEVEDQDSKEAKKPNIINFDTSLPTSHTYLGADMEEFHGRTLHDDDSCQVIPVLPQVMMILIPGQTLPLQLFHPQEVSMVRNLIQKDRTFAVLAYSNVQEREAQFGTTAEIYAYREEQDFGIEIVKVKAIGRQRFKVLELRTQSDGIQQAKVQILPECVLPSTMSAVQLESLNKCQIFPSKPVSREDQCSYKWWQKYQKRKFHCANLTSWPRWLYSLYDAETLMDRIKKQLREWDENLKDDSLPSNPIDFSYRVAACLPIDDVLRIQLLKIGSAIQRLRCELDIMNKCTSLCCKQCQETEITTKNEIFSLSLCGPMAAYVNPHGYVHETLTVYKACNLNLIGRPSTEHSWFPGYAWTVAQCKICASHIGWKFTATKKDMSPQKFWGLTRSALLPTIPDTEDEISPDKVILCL
T1 sequence (Q16531 whole entry partner): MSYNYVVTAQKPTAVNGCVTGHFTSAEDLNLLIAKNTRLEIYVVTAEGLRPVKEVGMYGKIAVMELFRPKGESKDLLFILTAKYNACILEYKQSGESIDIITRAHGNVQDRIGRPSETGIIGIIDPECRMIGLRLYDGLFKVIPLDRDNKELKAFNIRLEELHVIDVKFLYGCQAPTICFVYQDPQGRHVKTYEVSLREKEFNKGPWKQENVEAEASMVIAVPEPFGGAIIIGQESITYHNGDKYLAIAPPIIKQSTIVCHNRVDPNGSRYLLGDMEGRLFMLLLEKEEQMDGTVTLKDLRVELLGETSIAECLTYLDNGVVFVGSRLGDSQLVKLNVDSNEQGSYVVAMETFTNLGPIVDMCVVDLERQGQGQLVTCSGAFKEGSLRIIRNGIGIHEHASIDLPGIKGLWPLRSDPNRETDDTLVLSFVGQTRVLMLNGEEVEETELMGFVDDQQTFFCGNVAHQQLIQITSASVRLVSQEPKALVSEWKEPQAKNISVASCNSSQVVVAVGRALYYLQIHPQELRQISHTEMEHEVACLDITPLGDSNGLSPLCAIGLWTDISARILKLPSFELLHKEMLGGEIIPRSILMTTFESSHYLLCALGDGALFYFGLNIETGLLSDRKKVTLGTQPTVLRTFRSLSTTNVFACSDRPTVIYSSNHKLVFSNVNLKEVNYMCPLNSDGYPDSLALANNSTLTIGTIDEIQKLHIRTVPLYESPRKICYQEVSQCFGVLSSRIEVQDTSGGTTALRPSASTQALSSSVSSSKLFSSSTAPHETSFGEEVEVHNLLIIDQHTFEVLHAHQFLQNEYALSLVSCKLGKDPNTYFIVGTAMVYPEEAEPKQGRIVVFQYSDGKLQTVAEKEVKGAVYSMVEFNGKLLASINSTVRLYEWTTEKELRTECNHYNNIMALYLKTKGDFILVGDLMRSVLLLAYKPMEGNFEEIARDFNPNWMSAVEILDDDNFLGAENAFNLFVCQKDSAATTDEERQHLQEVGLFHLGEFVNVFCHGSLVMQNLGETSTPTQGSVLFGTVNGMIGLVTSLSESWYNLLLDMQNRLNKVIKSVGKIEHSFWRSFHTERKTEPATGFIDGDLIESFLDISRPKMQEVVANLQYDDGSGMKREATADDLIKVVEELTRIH
How it was run: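 HEK293 cells with HiBiT-tagged GSPT1 seeded overnight, then treated with serial compound dilutions for 6 h at 37° C. Remaining GSPT1 measured by HiBiT lytic luminescence; DC50 from fitted degradation-concentration curve.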

SU-DHL-2 cells = assay: SU-DHL-2 cell killing experiment (CellTiter-Glo cell viability); details: Homo sapiens, 48 h incubation, CTG luminescence
Method: as §1, with “SU-DHL-2” for “Jurkat”, “CRL-2956™),” for “TIB-152™),”
as §2, with “SU-DHL-2” for “Jurkat”
as §3

Toledo cells = assay: Toledo cell killing experiment (CellTiter-Glo cell viability); details: Homo sapiens, 48 h incubation, CTG luminescence
Method: as §1, with “Toledo” for “Jurkat”, “CRL-2631™),” for “TIB-152™),”
as §2, with “Toledo” for “Jurkat”
as §3

THP-1 cells = assay: THP-1 cell killing experiment (CellTiter-Glo cell viability); details: Homo sapiens, 48 h incubation, CTG luminescence
Method: as §1, with “THP-1” for “Jurkat”, “TIB-202™),” for “TIB-152™),”
as §2, with “THP-1” for “Jurkat”
as §3

Q: Which results are given for `O=C1CCC(N2C(=O)c3cccc(NCc4cccc(C(=O)NC5CCC(c6nc7ccccc7o6)CC5)c4)c3C2=O)C(=O)N1` (stereo not shown) [Example 16]?
A: GI50 (HL60 cells): < 100 nM; GI50 (Jurkat cells): 4.07 nM; GI50 (Hep3B cells): 1.36 nM; GI50 (NCI-H929 cells): 0.96 nM; GI50 (Raji cells): 362 nM; DC50 (GSPT1): < 100 nM

Q: For `COc1ccc2c(c1)nc([C@H]1CC[C@H](COc3cc(CNc4cccc5c4C(=O)N(C4CCC(=O)NC4=O)C5=O)ccn3)CC1)n2C` (stereo partly shown) [Example 75], which GI50 (HL60 cells) is on record?
A: < 100 nM

Q: What about the GI50 (Jurkat cells) of the same molecule?
A: 0.4 nM

Q: And the GI50 (SU-DHL-2 cells)?
A: 0.93 nM

Q: What about the GI50 (Toledo cells) of the same molecule?
A: 0.45 nM

Q: What about the GI50 (Raji cells) of the same molecule?
A: 1.79 nM

Q: And the DC50 (GSPT1)?
A: < 100 nM

Q: `COc1ccc(CNc2cccc3c2C(=O)N(C2CCC(=O)NC2=O)C3=O)cc1C(=O)N[C@H]1CC[C@H](c2nc3ccncc3n2C)CC1` (stereo partly shown) [Example 89] was tested. Which GI50 (HL60 cells) did it give?
A: < 100 nM

Q: What about the GI50 (THP-1 cells) of the same molecule?
A: 5.65 nM

Q: What about the GI50 (Jurkat cells) of the same molecule?
A: 0.5 nM

Q: And the GI50 (SU-DHL-2 cells)?
A: 1.42 nM

Q: What about the DC50 (GSPT1) of the same molecule?
A: < 100 nM

Q: What does the source list for `COc1ccc2c(c1)nc([C@H]1CC[C@H](NC(=O)c3cc(CNc4cccc5c4C(=O)N(C4CCC(=O)NC4=O)C5=O)ccn3)CC1)n2C` (stereo partly shown) [Example 90]?
A: GI50 (HL60 cells): < 100 nM; GI50 (THP-1 cells): 4.14 nM; GI50 (NCI-H929 cells): 0.93 nM; GI50 (Raji cells): 5.88 nM; DC50 (GSPT1): < 100 nM

Q: `COc1ccc2nc([C@H]3CC[C@H](C(=O)Nc4cccc(CNc5cccc6c5C(=O)N(C5CCC(=O)NC5=O)C6=O)c4)CC3)sc2n1` (stereo partly shown) [Example 97] was tested. Which GI50 (HL60 cells) did it give?
A: < 100 nM

Q: What about the GI50 (THP-1 cells) of the same molecule?
A: 2.58 nM

Q: What about the GI50 (SU-DHL-2 cells) of the same molecule?
A: 1.51 nM

Q: And the GI50 (Hep3B cells)?
A: 0.46 nM

Q: And the GI50 (Raji cells)?
A: 3.43 nM

Q: And the DC50 (GSPT1)?
A: < 100 nM

— patent publication US20250361239A1, “PROTEIN DEGRADERS AND USES THEREOF” (ZHUHAI YUFAN BIOTECHNOLOGIES CO., LTD., priority 2022, published 2025)
